# Values of other authors in patent US7638678B2, “Animal model for perimenopause and menopause and methods of inducing ovarian failure” (The Arizona Board of Regents, priority 2002, dated 2009).
# Experiments:
# [1] = system: ovarian follicles; details: B6C3F1 mice dosed with VCH; cited from earlier work
# [2] = i.p. minipumps versus injection; cited from earlier work
Compound,Premature ovarian failure in long term studies [1],Decrease of the effective dose by continuous administration [2]
"C=CC1CC=CCC1 (centres unmarked) [VCH, 4-vinylcyclohexene]",premature ovarian failure occurred within a year,–
endostatin,–,8-10 fold
